Data: PMC9664485 (European journal of medicinal chemistry, 2022)
“And” between values parts separate entries of the source, which are not always exact repeats. Equal entries are not always repeated.

Target: T1, recombinant human Wip1 (1–420) (Homo sapiens, UniProt O15297)
T1 sequence (O15297 1-420): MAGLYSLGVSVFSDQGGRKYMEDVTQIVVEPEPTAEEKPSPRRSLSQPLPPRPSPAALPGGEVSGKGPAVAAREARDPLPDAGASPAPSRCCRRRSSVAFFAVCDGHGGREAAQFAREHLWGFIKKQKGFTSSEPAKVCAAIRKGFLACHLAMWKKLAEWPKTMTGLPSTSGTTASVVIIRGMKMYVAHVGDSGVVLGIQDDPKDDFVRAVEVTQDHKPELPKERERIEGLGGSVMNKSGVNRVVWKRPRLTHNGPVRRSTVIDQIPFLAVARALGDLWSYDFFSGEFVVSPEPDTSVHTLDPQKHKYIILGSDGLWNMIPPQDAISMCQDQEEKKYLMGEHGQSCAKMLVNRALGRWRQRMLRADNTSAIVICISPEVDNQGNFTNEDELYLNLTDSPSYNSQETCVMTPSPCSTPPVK
Assay: Wip1 phosphatase activity inhibition assay
Type: biochemical

[1] = variable slope logistic fit of Wip1 inhibition curve
[2] = fixed-slope logistic curve, which assumes the Hill coefficient = 1 (footnote a)

| Structure (SMILES) | Hill coefficient [n] [1] | further results |
| --- | --- | --- |
| Nc1ccccc1CC1CCCCC1 [Compound 10, 2-(cyclohexylmethyl)aniline] |  | Wip1 inhibitory activity (in words): did not have significant inhibitory activity |
| Nc1ccccc1CCC1CCCCC1 [Compound 12, 2-(2-cyclohexylethyl)aniline] |  | Wip1 inhibitory activity (in words): did not have significant inhibitory activity |
| O=C(O)c1cccc(CNc2ccccc2CC2CCCCC2)c1 [Compound 14, 3-(((2-(cyclohexylmethyl)phenyl)amino)methyl)benzoic acid] | 1.9 ± 0.4 | Wip1 inhibitory activity (in words): modest inhibition |
| COC(=O)c1ccc(NCc2cccc(C(=O)O)c2)c(CC2CCCCC2)c1 [Compound 15, 3-(((2-(cyclohexylmethyl)-4-(methoxycarbonyl)phenyl)amino)methyl)benzoic acid] | 2.8 ± 0.5 |  |
| O=C(O)c1cccc(CNc2ccccc2CCC2CCCCC2)c1 [Compound 16, 3-(((2-(2-cyclohexylethyl)phenyl)amino)methyl)benzoic acid] |  | Wip1 inhibitory activity (in words): modest inhibition |
| COC(=O)c1ccc(NCc2cccc(C(=O)O)c2)c(CCC2CCCCC2)c1 [Compound 17, 3-(((2-(2-cyclohexylethyl)-4-(methoxycarbonyl)phenyl)amino)methyl)benzoic acid] | 4.4 ± 0.4 |  |
| Nc1ccc(C(=O)Nc2cccc(OP(=O)(O)O)c2)cc1CC1CCCCC1 [Compound 22a, 3-(4-amino-3-(cyclohexylmethyl)benzamido)phenyl dihydrogen phosphate] | 1.2 ± 0.10 |  |
| CCCCC(CCCC)CNc1ccc(C(=O)Nc2cccc(OP(=O)(O)O)c2)cc1CC1CCCCC1 [Compound 22b, 3-(4-((2-butylhexyl)amino)-3-(cyclohexylmethyl)benzamido)phenyl dihydrogen phosphate] |  | Hill coefficient [n] [2]: 1^a |
| O=C(Nc1cccc(OP(=O)(O)O)c1)c1ccc(NCCCc2ccccc2)c(CC2CCCCC2)c1 [Compound 22c, 3-(3-(cyclohexylmethyl)-4-((3-phenylpropyl)amino)benzamido)phenyl dihydrogen phosphate] |  | IC50: 165 µM; Hill coefficient [n] [2]: 1^a |
| COc1ccc(CNc2ccc(C(=O)Nc3cccc(OP(=O)(O)O)c3)cc2CC2CCCCC2)cc1 [Compound 22d, 3-(3-(cyclohexylmethyl)-4-((4-methoxybenzyl)amino)benzamido)phenyl dihydrogen phosphate] | 2.0 ± 0.2 |  |
| COc1cccc(CNc2ccc(C(=O)Nc3cccc(OP(=O)(O)O)c3)cc2CC2CCCCC2)c1 [Compound 22e, 3-(3-(cyclohexylmethyl)-4-((3-methoxybenzyl)amino)benzamido)phenyl dihydrogen phosphate] | 1.3 ± 0.3 |  |
| O=C(Nc1cccc(OP(=O)(O)O)c1)c1ccc(NCc2cccc(F)c2)c(CC2CCCCC2)c1 [Compound 22f, 3-(3-(cyclohexylmethyl)-4-((3-fluorobenzyl)amino)benzamido)phenyl dihydrogen phosphate] | 3.4 ± 0.4 |  |
| O=C(Nc1cccc(OP(=O)(O)O)c1)c1ccc(NCc2ccc(F)cc2)c(CC2CCCCC2)c1 [Compound 22g, 3-(3-(cyclohexylmethyl)-4-((4-fluorobenzyl)amino)benzamido)phenyl dihydrogen phosphate] | 3 and 3.0 ± 0.4 |  |
| O=C(Nc1cccc(OP(=O)(O)O)c1)c1ccc(NCc2ccc3ccccc3c2)c(CC2CCCCC2)c1 [Compound 22h, 3-(3-(cyclohexylmethyl)-4-((naphthalen-2-ylmethyl)amino)benzamido)phenyl dihydrogen phosphate] |  | Wip1 inhibitory activity (in words): weak activity; Hill coefficient [n] [2]: 1^a |
| COc1cc(OC)cc(-c2ccc(CNc3ccc(C(=O)Nc4cccc(OP(=O)(O)O)c4)cc3CC3CCCCC3)cc2)c1 [Compound 22j, 3-(3-(cyclohexylmethyl)-4-(((3’,5’-dimethoxy-[1,1’-biphenyl]-4-yl)methyl)amino)benzamido)phenyl dihydrogen phosphate] | 1.8 ± 0.1 |  |
| O=C(Nc1cccc(OP(=O)(O)O)c1)c1ccc(NCc2ccc(-c3cccc(Cl)c3)cc2)c(CC2CCCCC2)c1 [Compound 22k, 3-(4-(((3’-chloro-[1,1’-biphenyl]-4-yl)methyl)amino)-3-(cyclohexylmethyl)benzamido)phenyl dihydrogen phosphate] | 1.3 ± 0.2 |  |
| O=C(Nc1cccc(OP(=O)(O)O)c1)c1ccc(NCc2ccc(-c3cccc(F)c3)cc2)c(CC2CCCCC2)c1 [Compound 22l, 3-(3-(cyclohexylmethyl)-4-(((3’-fluoro-[1,1’-biphenyl]-4-yl)methyl)amino)benzamido)phenyl dihydrogen phosphate] | 1.7 ± 0.4 |  |
| O=C(Nc1cccc(OP(=O)(O)O)c1)c1ccc(NCc2cc3ccccc3o2)c(CC2CCCCC2)c1 [Compound 22m, 3-(4-((benzofuran-2-ylmethyl)amino)-3-(cyclohexylmethyl)benzamido)phenyl dihydrogen phosphate] | 1.5 ± 0.1 |  |
| O=C(Nc1cccc(OP(=O)(O)O)c1)c1ccc(NCc2cccnc2)c(CC2CCCCC2)c1 [Compound 22n, 3-(3-(cyclohexylmethyl)-4-((pyridin-3-ylmethyl)amino)benzamido)phenyl dihydrogen phosphate] | 1.6 ± 0.2 | fold less active (Wip1 IC50) (compared with 22m): 5 fold |
| O=C(Nc1cccc(OP(=O)(O)O)c1)c1ccc(NCc2ccc(F)cc2)c(Cc2ccccc2)c1 [Compound 29a, 3-(3-benzyl-4-((4-fluorobenzyl)amino)benzamido)phenyl dihydrogen phosphate] | 1.7 ± 0.1 | fold loss in activity (Wip1 IC50) (compared with 22g): 3 fold |
| O=C(Nc1cccc(OP(=O)(O)O)c1)c1ccc(NCc2ccc(F)cc2)cc1 [Compound 29b, 3-(4-((4-fluorobenzyl)amino)benzamido)phenyl dihydrogen phosphate] |  | Wip1 inhibitory activity (in words): almost complete loss of inhibitory activity; Hill coefficient [n] [2]: 1^a |
| O=C(Nc1ccc(OP(=O)(O)O)cc1)c1ccc(NCc2ccc(F)cc2)c(CC2CCCCC2)c1 [Compound 32a, 4-(3-(cyclohexylmethyl)-4-((4-fluorobenzyl)amino)benzamido)phenyl dihydrogen phosphate] | 3.4 ± 0.4 | Wip1 inhibitory activity (in words): comparable inhibitory activity with the parent compound 22g |
| O=C(Nc1cccc(Cl)c1)c1cccc(CNc2ccc(C(=O)Nc3cccc(O)c3)cc2CCC2CCCCC2)c1 [Compound 38c, 4-((3-((3-chlorophenyl)carbamoyl)benzyl)amino)-3-(2-cyclohexylethyl)-N-(3-hydroxyphenyl)benzamide] |  | Wip1 inhibitory activity (in words): considerable drop in activity; Hill coefficient [n] [2]: 1^a |
| O=C(Nc1cccc(Cl)c1)c1ccc(CNc2ccc(C(=O)Nc3cccc(OP(=O)(O)O)c3)cc2CC2CCCCC2)cc1 [Compound 40a, 3-(4-((4-((3-chlorophenyl)carbamoyl)benzyl)amino)-3-(cyclohexylmethyl)benzamido)phenyl dihydrogen phosphate] | 1.9 ± 0.2 |  |
| O=C(Nc1cccc(Cl)c1)c1cccc(CNc2ccc(C(=O)Nc3cccc(OP(=O)(O)O)c3)cc2CCC2CCCCC2)c1 [Compound 40c, 3-(4-((3-((3-chlorophenyl)carbamoyl)benzyl)amino)-3-(2-cyclohexylethyl)benzamido)phenyl dihydrogen phosphate] | 1.0 ± 0.1 |  |
| O=C(Nc1cccc(Cl)c1)c1cccc(CNc2ccc(C(=O)Nc3cccc(OP(=O)(O)O)c3)cc2C2CC3CCC2C3)c1 (stereo not drawn) [Compound 40d, 3-(3-(bicyclo[2.2.1]heptan-2-yl)-4-((3-((3-chlorophenyl)carbamoyl)benzyl)amino)benzamido)phenyl dihydrogen phosphate] | 2.3 ± 0.4 |  |
| O=C(Nc1ccc2c(c1)OCO2)c1cccc(CNc2ccc(C(=O)Nc3cccc(OP(=O)(O)O)c3)cc2CC2CCCCC2)c1 [Compound 40e, 3-(4-((3-(benzo[d][1,3]dioxol-5-ylcarbamoyl)benzyl)amino)-3-(cyclohexylmethyl)benzamido)phenyl dihydrogen phosphate] | 2.9 ± 0.1 |  |
| O=C(Nc1cccc(F)c1)c1cccc(CNc2ccc(C(=O)Nc3cccc(OP(=O)(O)O)c3)cc2CC2CCCCC2)c1 [Compound 40f, 3-(3-(cyclohexylmethyl)-4-((3-((3-fluorophenyl)carbamoyl)benzyl)amino)benzamido)phenyl dihydrogen phosphate] | 3.6 ± 0.2 |  |
